Assay results from paper PMC5464637, “Identification of key amino acid residues in the hTGR5–nomilin interaction and construction of its binding model” (PLoS ONE, 2017).
Positions count from the first letter of the chain named.

Assays:
hTGR5-Q77R/R80Q/Y89H = target: T1, hTGR5-Q77R/R80Q/Y89H (Homo sapiens, UniProt Q8TDU6, Q77R/R80Q/Y89H); test: CRE-luciferase reporter assay in HEK293 cells transfected with human-to-mouse triple mutant TGR5; conditions: for EC50: CRE-luciferase dose-response, HEK293, n = 3; for agonist activity (CRE-luciferase response): HEK293
T1 sequence (Q8TDU6 1-330 Q77R/R80Q/Y89H): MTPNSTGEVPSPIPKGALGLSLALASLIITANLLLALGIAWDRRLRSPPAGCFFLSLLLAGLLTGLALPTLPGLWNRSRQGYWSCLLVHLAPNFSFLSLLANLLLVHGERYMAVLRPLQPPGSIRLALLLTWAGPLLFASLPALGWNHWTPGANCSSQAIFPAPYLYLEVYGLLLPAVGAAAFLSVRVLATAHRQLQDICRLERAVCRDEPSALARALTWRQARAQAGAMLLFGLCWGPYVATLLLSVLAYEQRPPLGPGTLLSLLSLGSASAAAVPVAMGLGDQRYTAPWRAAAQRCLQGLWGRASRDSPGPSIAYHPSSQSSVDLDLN

hTGR5-WT = target: T2, hTGR5-WT (Homo sapiens, UniProt Q8TDU6); test: CRE-luciferase reporter assay in HEK293 cells transfected with hTGR5-WT; type: cell-based; conditions: for agonist activity (CRE-luciferase response): hTGR5-WT, 100 μM, 5 h, HEK293
T2 construct: expressed in transfected cells; host or cells: HEK293
T2 sequence (Q8TDU6 1-330): T1 sequence (Q8TDU6 1-330 Q77R/R80Q/Y89H) with R77Q, Q80R, H89Y
Description: (§1) HEK293 cells were plated in 12-well plates at a density of 1.0 × 10^5 cells/well. Twenty hours later, the cells were transfected with pCRE-Luc, p3×FLAG-CMV-TGR5, and pEF-β-galactosidase (100 ng/well each) using the calcium phosphate method. After 4 h of incubation, the medium was replaced with DMEM, which contained 10% dextran charcoal-stripped FBS. Twenty-four hours after transfection, the cells were treated with the previously mentioned compounds and control vehicle (DMSO). After 5 h, the cells were then incubated with lysis buffer (25 mM Tris-phosphate [pH 7.8], 2 mM dithiothreitol [DTT], 2 mM trans-1,2-Diaminocyclohexane-N,N,N, N′-tetraacetic acid [CDTA], 10% glycerol, and 1% Triton X-100) on ice, and the luciferase and β-galactosidase activity were measured. The luciferase activity values were divided by those of β-galactosidase to obtain normalized luciferase values.

mTGR5-WT = target: T3, mTGR5-WT (Mus musculus, UniProt Q80SS6); test: CRE-luciferase reporter assay in HEK293 cells transfected with mTGR5-WT; type: cell-based; conditions: for agonist activity (CRE-luciferase response): 100 μM, 5 h, HEK293; for EC50: CRE-luciferase dose-response, HEK293, n = 3
T3 construct: expressed in transfected cells; host or cells: HEK293
T3 sequence (Q80SS6 1-329): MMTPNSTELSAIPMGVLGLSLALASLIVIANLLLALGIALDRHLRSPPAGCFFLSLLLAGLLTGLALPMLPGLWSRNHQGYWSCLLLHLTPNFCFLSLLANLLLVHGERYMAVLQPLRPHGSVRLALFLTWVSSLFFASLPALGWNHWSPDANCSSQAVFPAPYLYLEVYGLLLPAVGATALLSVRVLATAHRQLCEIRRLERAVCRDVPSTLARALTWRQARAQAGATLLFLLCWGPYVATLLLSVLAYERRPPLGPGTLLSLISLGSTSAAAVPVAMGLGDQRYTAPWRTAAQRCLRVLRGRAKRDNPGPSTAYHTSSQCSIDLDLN
Description: as §1

hTGR5-Q77A/R80A/Y89A = conditions: 100 μM, 5 h, HEK293
Description: as §1
(PDF) Click here for additional data file.

mTGR5-R76Q/Q79R/H88Y = target: T4, mTGR5-R76Q/Q79R/H88Y (Mus musculus, UniProt Q80SS6, H88Y/Q79R/R76Q); test: CRE-luciferase reporter assay in HEK293 cells transfected with mouse-to-human triple mutant TGR5; conditions: for agonist activity (CRE-luciferase response): mTGR5-R76Q/Q79R/H88Y, HEK293
T4 sequence (Q80SS6 1-329 R76Q/Q79R/H88Y): T3 sequence (Q80SS6 1-329) with R76Q, Q79R, H88Y

Compound | EC50 (hTGR5-Q77R/R80Q/Y89H) | agonist activity (CRE-luciferase response) (hTGR5-Q77R/R80Q/Y89H) | EC50 (hTGR5-WT) | agonist activity (CRE-luciferase response) (mTGR5-WT) | EC50 (mTGR5-WT) | agonist activity (CRE-luciferase response) (hTGR5-Q77A/R80A/Y89A) | EC50 (mTGR5-R76Q/Q79R/H88Y) | agonist activity (CRE-luciferase response) (mTGR5-R76Q/Q79R/H88Y) | agonist activity (CRE-luciferase response) (hTGR5-WT)
CC(=O)O[C@H]1CC(=O)OC(C)(C)[C@@H]2CC(=O)[C@]3(C)[C@H](CC[C@@]4(C)[C@H](c5ccoc5)OC(=O)[C@H]5O[C@]543)[C@@]12C [nomilin] | undetectable | very weak nomilin response identical to that of mTGR5 | 23.6 µM | considerably weaker agonist activity for mTGR5 than it does for hTGR5 | undetectable | very weak nomilin response relative to WT-hTGR5 | 46.2 µM | strong nomilin response equal to that of hTGR5-WT | –
CC1(C)OC(=O)C=C[C@]2(C)[C@H]3CC[C@@]4(C)[C@H](c5ccoc5)OC(=O)[C@H]5O[C@]54[C@]3(C)C(=O)C[C@@H]12 [obacunone] | undetectable | very weak obacunone response | 147 µM | very weak obacunone response | undetectable | – | 165 µM | equally intense obacunone responses | stronger agonist activity for hTGR5 than it does for mTGR5
CC1(C)O[C@H]2CC(=O)OC[C@]23[C@H]2CC[C@@]4(C)[C@H](c5ccoc5)OC(=O)[C@H]5O[C@]54[C@]2(C)C(=O)C[C@@H]13 [limonin] | – | – | – | – | – | – | – | – | very weak hTGR5 agonist activity
